This note sets out measurements from patent EP2582674B1 (Cymabay Therapeutics, Inc., priority 2010, dated 2011).

Some results are limits rather than exact numbers.

As a reminder, the EC50 is the concentration at which the effect is half-maximal.

In the first experiment the target is T1, human GPR120 (Homo sapiens, UniProt Q5NUL3).
T1 construct: host or cells: HEK293 cells co-expressing Gqi5
T1 sequence (Q5NUL3 1-361): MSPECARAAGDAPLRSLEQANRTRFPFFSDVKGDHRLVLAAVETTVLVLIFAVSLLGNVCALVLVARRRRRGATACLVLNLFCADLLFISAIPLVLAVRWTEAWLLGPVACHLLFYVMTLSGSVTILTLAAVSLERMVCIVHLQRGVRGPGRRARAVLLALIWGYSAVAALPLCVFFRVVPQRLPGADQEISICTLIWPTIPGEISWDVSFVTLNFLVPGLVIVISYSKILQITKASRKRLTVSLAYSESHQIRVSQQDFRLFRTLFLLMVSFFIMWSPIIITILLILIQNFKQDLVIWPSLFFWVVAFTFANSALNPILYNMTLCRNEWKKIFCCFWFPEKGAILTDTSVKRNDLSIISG
In words: Intracellular Ca2+ assay in human GPR120 stable cell line (FLIPR Calcium 4 dye, Flexstation). The experiment is classed as cell-based. As to conditions: % activity at 2.5 µM compared to the maximal activity of the compound of Example 25 at 2.5 µM (=100%); HEK293 cells co-expressing Gqi5.
Take `CC1(C)Cc2cc(F)cc(COc3c(F)cc(CC4CC4C(=O)O)cc3F)c2O1` (centres unmarked) [Example 184, 2-(3,5-difluoro-4-((5-fluoro-2,2-dimethyl-2,3-dihydrobenzofuran-7-yl)methoxy)benzyl)cyclopropanecarboxylic acid]: the “% Activity (Ex. 25 Reference Compound)” value was found to be 97.04%. With `CC1(C)Cc2cc(F)cc(COc3c(F)cc(CC4CC4C(=O)O)cc3F)c2O1` (single isomer, unassigned) [Example 184B, 2-(3,5-difluoro-4-((5-fluoro-2,2-dimethyl-2,3-dihydrobenzofuran-7-yl)methoxy)benzyl)cyclopropanecarboxylic acid], the “% Activity (Ex. 25 Reference Compound)” value worked out at 130.66%.

Staying with this experiment, now noted: % activity at 2.5 µM compared to the maximal activity of the compound of Example 25 at 2.5 µM (=100%); HEK293 cells co-expressing Gqi5; read-out: % Activity (Ex. 25 Reference Compound).
With `CC1(C)Cc2cc(F)cc(CCc3ccc(OCC(=O)O)cc3)c2O1` [Example 70, 2-(4-(2-(5-fluoro-2,2-dimethyl-2,3-dihydrobenzofuran-7-yl)ethyl)phenoxy)acetic acid], the activity at 2.5 µM is 118%.

Staying with this experiment, now noted: HEK293, % activity at 2.5 µM compared to the maximal activity of the compound of Example 25 at 2.5 µM (=100%); HEK293 cells co-expressing Gqi5; read-out: % Activity (Ex. 25 Reference Compound).
`Cc1c(CCC(=O)O)ccc(OCc2cc(Cl)cc3c2CC(C)(C)O3)c1C` [Example 267, 3-(4-((6-chloro-2,2-dimethyl-2,3-dihydrobenzofuran-4-yl)methoxy)-2,3-dimethylphenyl)propanoic acid]: the activity at 2.5 µM worked out at 141%.

Consider `CC1(C)Cc2cc(Cl)cc(COc3ccc(CCC(=O)O)c(-c4ccccc4)c3)c2O1` [Example 71, 3-(5-((5-chloro-2,2-dimethyl-2,3-dihydrobenzofuran-7-yl)methoxy)-[1,1'-biphenyl]-2-yl)propanoic acid], for which the activity at 2.5 µM is 134%. Still for that read-out and setting: the figure for `CC(Cc1ccc(OCc2cc(-n3cnnn3)cc3c2OC(C)(C)C3)cc1)C(=O)O` (centres unmarked) [Example 90, 3-(4-((2,2-dimethyl-5-(1H-tetrazol-1-yl)-2,3-dihydrobenzofuran-7-yl)methoxy)phenyl)-2-methylpropanoic acid] is 75.9%. On the same count and under the same terms, then `CCCc1cc(OCc2cc(Cl)cc3c2OC(C)(C)C3)c(F)cc1CCC(=O)O` [Example 73, 3-(4-((5-chloro-2,2-dimethyl-2,3-dihydrobenzofuran-7-yl)methoxy)-5-fluoro-2-propylphenyl)propanoic acid], with 115%.

As to `CC(Cc1ccc(OCc2cc(Cl)cc3c2OC2(CCCC2)C3)cc1)C(=O)O` (centres unmarked) [Example 159, 3-(4-((5-chloro-3H-spiro[benzofuran-2,1'-cyclopentane]-7-yl)methoxy)phenyl)-2-methylpropanoic acid], the activity at 2.5 µM was 165%. Turning to `CC(C)Oc1ccc(Cl)cc1COc1ccc2c(c1)CCC2CC(=O)O` (centres unmarked) [Example 258, 2-(5-((5-chloro-2-isopropoxybenzyl)oxy)-2,3-dihydro-1H-inden-1-yl)acetic acid], the activity at 2.5 µM was 140%.

As to `CN(C)Cc1cc(OCc2cc(F)cc3c2OC(C)(C)C3)ccc1CCC(=O)O` [Example 122, 3-(2-((dimethylamino)methyl)-4-((5-fluoro-2,2-dimethyl-2,3-dihydrobenzofuran-7-yl)methoxy)phenyl)propanoic acid], the activity at 2.5 µM was 3.58%. Still for that read-out and setting: then `CC1(C)Cc2c(ccc(F)c2COc2c(F)cc(C3CC3C(=O)O)cc2F)O1` (centres unmarked) [Example 99, 2-(3,5-difluoro-4-((5-fluoro-2,2-dimethyl-2,3-dihydrobenzofuran-4-yl)methoxy)phenyl)cyclopropanecarboxylic acid], with 102%; and `CC1(C)Cc2cc(Cl)cc(COc3cc(F)c(CCC(=O)O)c(F)c3)c2O1` [Example 54, 3-(4-((5-chloro-2,2-dimethyl-2,3-dihydrobenzofuran-7-yl)methoxy)-2,6-difluorophenyl)propanoic acid], with 139%. On the same count and under the same terms, the figure for `COc1cc(CCC(=O)O)ccc1OCc1cc(F)cc2c1OC(C)(C)C2` [Example 173, 3-(4-((5-fluoro-2,2-dimethyl-2,3-dihydrobenzofuran-7-yl)methoxy)-3-methoxyphenyl)propanoic acid] is 159%. Still for that read-out and setting: the figure for `CC1(C)Cc2c(COc3ccc4c(c3)CCC4CC(=O)O)ccc(F)c2O1` (centres unmarked) [Example 94, 2-(5-((7-fluoro-2,2-dimethyl-2,3-dihydrobenzofuran-4-yl)methoxy)-2,3-dihydro-1H-inden-1-yl)acetic acid] is 98.5%; for `Cc1cc(OCC(=O)O)ccc1OCc1cc(Cl)cc2c1OC(C)(C)C2` [Example 103, 2-(4-((5-chloro-2,2-dimethyl-2,3-dihydrobenzofuran-7-yl)methoxy)-3-methylphenoxy)acetic acid] it is 99%; for `CC(Cc1cc(F)c(OCc2c(F)c(F)cc3c2OC(C)(C)C3)c(F)c1)C(=O)O` (centres unmarked) [Example 42, 3-(4-((5,6-difluoro-2,2-dimethyl-2,3-dihydrobenzofuran-7-yl)methoxy)-3,5-difluorophenyl)-2-methylpropanoic acid] it is 141%. Turning to `CC1(C)Cc2cc(Cl)cc(COc3ccc(CCC(=O)O)c(F)c3)c2O1` [Example 53, 3-(4-((5-chloro-2,2-dimethyl-2,3-dihydrobenzofuran-7-yl)methoxy)-2-fluorophenyl)-propanoic acid], the activity at 2.5 µM was determined as 143%. Still for that read-out and setting: then `CC(CC(=O)O)c1cc(F)c(OCc2cc(Cl)cc3c2OC(C)(C)C3)c(F)c1` (centres unmarked) [Example 106, 3-(4-((5-chloro-2,2-dimethyl-2,3-dihydrobenzofuran-7-yl)methoxy)-3,5-difluorophenyl)butanoic acid], with 155%.

With `CC1(C)Cc2cc(F)cc(COc3ccc4c(c3)CCCC4CC(=O)O)c2O1` (centres unmarked) [Example 153, 2-(6-((5-fluoro-2,2-dimethyl-2,3-dihydrobenzofuran-7-yl)methoxy)-1,2,3,4-tetrahydronaphthalen-1-yl)acetic acid], the activity at 2.5 µM stood at 107%. In the case of `CC(Cc1ccc(OCc2ccc(F)c3c2CC(C)(C)O3)cc1)C(=O)O` (centres unmarked) [Example 91, 3-(4-((7-fluoro-2,2-dimethyl-2,3-dihydrobenzofuran-4-yl)methoxy)phenyl)-2-methylpropanoic acid], the activity at 2.5 µM came to 121%. Same read-out and setting: the figure for `Cc1cc(OCc2cc(F)cc3c2OC(C)(C)C3)c(C)cc1CCC(=O)O` [Example 206, 3-(4-((5-fluoro-2,2-dimethyl-2,3-dihydrobenzofuran-7-yl)methoxy)-2,5-dimethylphenyl)propanoic acid] is 111%.

Still in this experiment, the particulars now being: HEK293, % activity at 5 µM compared to the maximal activity of GW9508 at 6.7 µM (=100%); HEK293 cells co-expressing Gqi5; read-out: %Activity (GW9508 Reference Compound).
For `CC1(C)Cc2cccc(COc3c(F)cc(C4CC4C(=O)O)cc3F)c2O1` (centres unmarked) [Example 24, 2-(4-((2,2-dimethyl-2,3-dihydrobenzofuran-7-yl)methoxy)-3,5-difluorophenyl) cyclopropanecarboxylic acid], the activity at 5 µM is 100%.

Regarding `CC(Cc1cc(F)c(OCc2cc(Cl)cc3c2OC(C)(C)C3)c(F)c1)C(=O)O` (centres unmarked) [Example 38, 3-(4-((5-chloro-2,2-dimethyl-2,3-dihydrobenzofuran-7-yl)methoxy)-3,5-difluorophenyl)-2-methylpropanoic acid], the activity at 5 µM came to 83.4%. Same read-out and setting: then `COc1cc(CC(C)C(=O)O)ccc1OCc1cc(F)cc2c1OC(C)(C)C2` (centres unmarked) [Example 7, 3-(4-((5-fluoro-2,2-dimethyl-2,3-dihydrobenzofuran-7-yl)methoxy)-3-methoxyphenyl)-2-methylpropanoic acid], with 168%; and `CC(Cc1cc(F)c(OCc2ccc(C(F)(F)F)c3c2OC(C)(C)C3)c(F)c1)C(=O)O` (centres unmarked) [Example 32, 3-(4-((2,2-dimethyl-4-(trifluoromethyl)-2,3-dihydrobenzofuran-7-yl)methoxy)-3,5-difluorophenyl)-2-methylpropanoic acid], with 143%. On the same count and under the same terms, then `CC(Cc1cc(F)c(OCc2cccc3c2CC(C)(C)O3)c(F)c1)C(=O)O` (centres unmarked) [Example 21, 3-(4-((2,2-dimethyl-2,3-dihydrobenzofuran-4-yl)methoxy)-3,5-difluorophenyl)-2-methylpropanoic acid], with 113%. Consider `CC(Cc1cc(F)c(OCc2cccc3c2OC(C)(C)C3)c(F)c1)C(=O)O` (centres unmarked) [Example 23, 3-(4-((2,2-dimethyl-2,3-dihydrobenzofuran-7-yl)methoxy)-3,5-difluorophenyl)-2-methylpropanoic acid], for which the activity at 5 µM is 113%. As to `CC(Cc1cc(F)c(OCc2cccc3c2OC(C)C3C)c(F)c1)C(=O)O` (centres unmarked) [Example 40, 3-(4-((2,3-dimethyl-2,3-dihydrobenzofuran-7-yl)methoxy)-3,5-difluorophenyl)-2-methylpropanoic acid], the activity at 5 µM came to 95.3%.

Staying with this experiment, now noted: eight concentrations from 0.00001 to 20 µM; changes (Max-Min) of fluorescence intensity.
Regarding `CC(Cc1ccc(OCc2c(F)c(F)cc3c2OC(C)(C)C3)cc1)C(=O)O` (centres unmarked) [Example 43, 3-(4-((5,6-difluoro-2,2-dimethyl-2,3-dihydrobenzofuran-7-yl)methoxy)phenyl)-2-methylpropanoic acid], the EC50 was over 10 µM. Take `COc1cc(CCC(=O)O)ccc1OCc1cc(F)cc2c1OC(C)(C)C2` [Example 173, 3-(4-((5-fluoro-2,2-dimethyl-2,3-dihydrobenzofuran-7-yl)methoxy)-3-methoxyphenyl)propanoic acid]: the concentration giving a half-maximal response (EC50) is 1 to 10 µM. On the same count and under the same terms, the figure for `CC(Cc1cc(F)c(OCc2c(F)c(F)cc3c2OC(C)(C)C3)c(F)c1)C(=O)O` (centres unmarked) [Example 42, 3-(4-((5,6-difluoro-2,2-dimethyl-2,3-dihydrobenzofuran-7-yl)methoxy)-3,5-difluorophenyl)-2-methylpropanoic acid] is 1 to 10 µM; for `CC(Cc1ccc(OCc2cc(Br)cc3c2OC(C)(C)C3)cc1)C(=O)O` (centres unmarked) [Example 81, 3-(4-((5-bromo-2,2-dimethyl-2,3-dihydrobenzofuran-7-yl)methoxy)phenyl)-2-methylpropanoic acid] it is at most 1 µM.
